Data from patent publication US20130324564A1, “POLYMORPHS OF (S)-1-(4,4,6,6,6-PENTADEUTERO-5-HYDROXYHEXYL)-3-7-DIMETHYL-1H-PURINE-2,6(3H,7H)-DIONE” (CONCERT PHARMACEUTICALS, INC., priority 2010, published 2013).

Columns and labels:
[1] = Solid-form stability of Form 1 under humidity, pressure and grinding stress; assay type: physicochemical
[2] = Relative thermodynamic stability and interconversion of polymorphs; assay type: physicochemical

Row | form stability / form change ([1]; exposed to 0.35 GPa pressure) | form stability / form change ([1]; exposed to 97% relative humidity for up to 12 days) | form stability / form change ([1]; ground at ambient temperature (30Hz for 2hrs)) | form stability / form change ([1]; ground at −196° C. (25Hz for 0.5hrs)) | form conversion ([2]; upon air drying, storage and/or slurrying at room temperature) | Structure (SMILES) | relative thermodynamic stability ([2]; compared with the other polymorphs)
1 | stable and did not undergo a form change | stable and did not undergo a form change | stable and did not undergo a form change | stable and did not undergo a form change | – | [2H]C([2H])([2H])[C@H](O)C([2H])([2H])CCCn1c(=O)c2c(ncn2C)n(C)c1=O [Form 1, (S)-1-(4,4,6,6,6-pentadeutero-5-hydroxyhexyl)-3,7-dimethyl-1H-purine-2,6(3H,7H)-dione] | more thermodynamically stable than any of Forms 2, 3 and 4
2 | – | – | – | – | convert to Form 1 | [2H]C([2H])([2H])[C@H](O)C([2H])([2H])CCCn1c(=O)c2c(ncn2C)n(C)c1=O [Form 2, (S)-1-(4,4,6,6,6-pentadeutero-5-hydroxyhexyl)-3,7-dimethyl-1H-purine-2,6(3H,7H)-dione] | –
